Data as given in ChEMBL document CHEMBL1201862, “PubChem BioAssay data set” (2004).
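Compound exposure: 48 hours, 5 concentrations, 96-well plates. GI50 marks 50% less growth.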 Calls of active or inactive are those of the source. No stated cut-off is given here; in the data, active = GI50 up to about 1.1 µM and inactive = higher.

How the values were obtained:
Assay in all cases: inhibition of tumour cell growth, NCI panel, 48 h
[1] = tested on: MCF7
[2] = tested on: U-251
[3] = tested on: SF-268
[4] = tested on: OVCAR-4
[5] = tested on: NCI-H226
[6] = tested on: UO-31
[7] = tested on: HOP-62
[8] = tested on: EKVX
[9] = tested on: HCT-116
[10] = tested on: OVCAR-3
[11] = tested on: NCI-H522
[12] = tested on: SK-MEL-28
[13] = tested on: MDA-MB-435
[14] = tested on: PC-3
[15] = tested on: KM12
[16] = tested on: A549
[17] = tested on: OVCAR-5
[18] = tested on: HCT-15
[19] = tested on: Malme-3M

SMILES	GI50 [1]	GI50 [2]	GI50 [3]	GI50 [4]	GI50 [5]	GI50 [6]	GI50 [7]	GI50 [8]	GI50 [9]	GI50 [10]	GI50 [11]	GI50 [12]	GI50 [13]	GI50 [14]	GI50 [15]	GI50 [16]	GI50 [17]	GI50 [18] [µM]	GI50 [19]
COC1OC(C(C)O)C2OC(C)(C)OC12 (centres undefined)	> 100 µM (inactive)	> 100 µM (inactive)	> 100 µM (inactive)	> 100 µM (inactive)	> 100 µM (inactive)	> 100 µM (inactive)	> 100 µM (inactive)	> 100 µM (inactive)	> 100 µM (inactive)	> 100 µM (inactive)	> 100 µM (inactive)	> 100 µM (inactive)	> 100 µM (inactive)	> 100 µM (inactive)	> 100 µM (inactive)	> 100 µM (inactive)	> 100 µM (inactive)	> 100	
COc1ccc(C[C@@H]2OC3(C=CC(=O)CC3Sc3ccccc3)O[C@H]2Cc2ccc(OC)cc2)cc1 (some centres undefined)	0.388 µM (active)	1.42 µM (inactive)	0.335 µM (active)	1.6 µM (inactive)	1.53 µM (inactive)	1.09 µM (active)	0.432 µM (active)			1.64 µM (inactive)		1.86 µM (inactive)	1.9 µM (inactive)	1.72 µM (inactive)	2.11 µM (inactive)	3.23 µM (inactive)	1.14 µM (inactive)	0.993	1.85 µM (inactive)
Cc1ccnc(NC(=S)Nc2ccccc2Cl)c1	> 100 µM (inactive)	> 100 µM (inactive)	33.6 µM (inactive)	> 100 µM (inactive)	63.5 µM (inactive)	> 100 µM (inactive)	34.7 µM (inactive)	40.1 µM (inactive)	> 100 µM (inactive)	> 100 µM (inactive)	0.131 µM (active)	> 100 µM (inactive)	> 100 µM (inactive)	> 100 µM (inactive)	> 100 µM (inactive)	> 100 µM (inactive)	> 100 µM (inactive)	> 100	53.5 µM (inactive)
CC[C@@]12CCC(=S)N(CCSc3ccccc3)[C@@H]1c1c(n(S(=O)(=O)c3ccc(OC)cc3)c3ccccc13)CC2	> 100 µM (inactive)	> 100 µM (inactive)	> 100 µM (inactive)		68.1 µM (inactive)	> 100 µM (inactive)	> 100 µM (inactive)	> 100 µM (inactive)	> 100 µM (inactive)	> 100 µM (inactive)	> 100 µM (inactive)	> 100 µM (inactive)	> 100 µM (inactive)	> 100 µM (inactive)	> 100 µM (inactive)	> 100 µM (inactive)	> 100 µM (inactive)	> 100	> 100 µM (inactive)
CSC1=N/C(=C\c2ccc(C)cc2)C(=O)N1CN1CCCCC1	88.1 µM (inactive)	> 100 µM (inactive)	61.8 µM (inactive)	22.4 µM (inactive)	> 100 µM (inactive)	37.2 µM (inactive)	> 100 µM (inactive)	75.3 µM (inactive)	84.9 µM (inactive)	> 100 µM (inactive)	> 100 µM (inactive)	> 100 µM (inactive)	> 100 µM (inactive)	72.4 µM (inactive)	> 100 µM (inactive)	83.4 µM (inactive)	> 100 µM (inactive)	73.8	> 100 µM (inactive)
O=C(O)CNCCc1ccccc1	> 100 µM (inactive)	> 100 µM (inactive)	> 100 µM (inactive)	> 100 µM (inactive)	> 100 µM (inactive)	> 100 µM (inactive)	> 100 µM (inactive)	> 100 µM (inactive)	> 100 µM (inactive)	> 100 µM (inactive)	> 100 µM (inactive)	> 100 µM (inactive)	> 100 µM (inactive)	> 100 µM (inactive)	> 100 µM (inactive)	> 100 µM (inactive)	> 100 µM (inactive)	> 100	> 100 µM (inactive)
